MIC data for 44 compounds are collected here from ChEMBL document CHEMBL1126965, “Synthesis and vitro antibacterial activity of hygromycin a analogs modified at the C4 aryl position” (1993).

In brackets after ≈: the same amount, converted by molar mass.

One experiment has as its system Brachyspira hyodysenteriae. The experiment can be described thus: In vitro antibacterial activity against Serpulina (Treponema) hyodysenteriae was tested and is expressed as minimum inhibitory concentration: Value ranges from (0.39-0.78 ug/mL). It is filed as functional.
Usually MIC stands for the smallest concentration in the dilution series that meets the test's criterion for growth inhibition. Lower therefore signals greater potency. In turn, `C/C(=C\c1ccc(OCC2CC2)c(O)c1)C(=O)N[C@@H]1[C@H](O)[C@@H](O)[C@H]2OCO[C@H]2[C@@H]1O` had an MIC of 0.39 µg/mL (≈ 0.925 µM).

A further experiment has as its system Brachyspira hyodysenteriae. Put plainly: In vitro antibacterial activity against Serpulina (Treponema) hyodysenteriae. It is filed as functional.
As for `CCCCCOc1ccc(/C=C(\C)C(=O)N[C@@H]2[C@H](O)[C@@H](O)[C@H]3OCO[C@H]3[C@@H]2O)cc1O`, the minimum inhibitory concentration (MIC) is > 200 µg/mL.

Compound `C/C(=C\c1ccc(OCCF)c(O)c1)C(=O)N[C@@H]1[C@H](O)[C@@H](O)[C@H]2OCO[C@H]2[C@@H]1O` registered an MIC of 6.25 µg/mL (≈ 15.1 µM).

Consider `C=CCN(C(C)=O)c1ccc(/C=C(\C)C(=O)N[C@@H]2[C@H](O)[C@@H](O)[C@H]3OCO[C@H]3[C@@H]2O)cc1O`, for which the minimal inhibitory concentration (MIC) is > 200 µg/mL.

Take `C=CC(C)Oc1ccc(/C=C(\C)C(=O)N[C@@H]2[C@H](O)[C@@H](O)[C@H]3OCO[C@H]3[C@@H]2O)cc1O` (some centres undefined): the minimal inhibitory concentration (MIC) came out at 25 µg/mL (≈ 59.3 µM).

As for `C/C(=C\c1ccc(N2CCCC2)cc1)C(=O)N[C@@H]1[C@H](O)[C@@H](O)[C@H]2OCO[C@H]2[C@@H]1O`, the MIC turned out to be 6.25 µg/mL (≈ 15.5 µM).

Regarding `C/C(=C\c1ccc(F)c(F)c1)C(=O)N[C@@H]1[C@H](O)[C@@H](O)[C@H]2OCO[C@H]2[C@@H]1O`, the minimal inhibitory concentration (MIC) is > 200 µg/mL.

In the case of `C/C(=C\c1ccc(N)c(O)c1)C(=O)N[C@@H]1[C@H](O)[C@@H](O)[C@H]2OCO[C@H]2[C@@H]1O`, the minimal inhibitory concentration (MIC) was > 200 µg/mL.

For `C=CCOc1ccc(/C=C(\C)C(=O)N[C@@H]2[C@H](O)[C@@H](O)[C@H]3OCO[C@H]3[C@@H]2O)cc1O`, the MIC came out at 0.78 µg/mL (≈ 1.91 µM).

In the case of `C/C(=C\c1ccc(OCOCCO)c(O)c1)C(=O)N[C@@H]1[C@H](O)[C@@H](O)[C@H]2OCO[C@H]2[C@@H]1O`, the MIC turned out to be 25 µg/mL (≈ 56.6 µM).

Turning to `CSC1C(C(C)=O)O[C@@H](Oc2ccc(/C=C(\C)C(=O)N[C@@H]3[C@H](O)[C@@H](O)[C@H]4OCO[C@H]4[C@@H]3O)cc2O)[C@H]1O` (some centres undefined), the MIC was > 100 µg/mL.

Regarding `COc1ccc(/C=C(\C)C(=O)N[C@@H]2[C@H](O)[C@@H](O)[C@H]3OCO[C@H]3[C@@H]2O)cc1O`, the minimal inhibitory concentration (MIC) came out at 12.5 µg/mL (≈ 32.8 µM).

Turning to `C/C(=C\c1ccc(O)c(O)c1)C(=O)NC1[C@@H](O)[C@@H]2OCO[C@@H]2[C@H](O)[C@H]1O` (some centres undefined), the lowest concentration to inhibit growth (MIC) was 200 µg/mL (≈ 544 µM).

As for `C#CCOc1ccc(/C=C(\C)C(=O)N[C@@H]2[C@H](O)[C@@H](O)[C@H]3OCO[C@H]3[C@@H]2O)cc1F`, inhibition of growth (MIC) required 6.25 µg/mL (≈ 15.3 µM).

The compound `CCOc1ccc(/C=C(\C)C(=O)N[C@@H]2[C@H](O)[C@@H](O)[C@H]3OCO[C@H]3[C@@H]2O)cc1O` gave an MIC of 1.56 µg/mL (≈ 3.95 µM).

Take `CCCN(CC)c1ccc(/C=C(\C)C(=O)N[C@@H]2[C@H](O)[C@@H](O)[C@H]3OCO[C@H]3[C@@H]2O)cc1O`: the MIC was > 200 µg/mL.

Consider `CC(=O)[C@@H]1C[C@H](O)[C@H](Oc2ccc(/C=C(\C)C(=O)N[C@@H]3[C@H](O)[C@@H](O)[C@H]4OCO[C@H]4[C@@H]3O)cc2O)O1`, for which the minimum inhibitory concentration (MIC) was > 100 µg/mL.

`CC(=O)C1=C[C@H](O)[C@H](Oc2ccc(/C=C(\C)C(=O)N[C@@H]3[C@H](O)[C@@H](O)[C@H]4OCO[C@H]4[C@@H]3O)cc2O)O1` registered a minimum inhibitory concentration (MIC) of 25 µg/mL (≈ 50.7 µM).

As for `C/C(=C\c1ccc(-c2ccccc2)cc1)C(=O)N[C@@H]1[C@H](O)[C@@H](O)[C@H]2OCO[C@H]2[C@@H]1O`, the lowest concentration to inhibit growth (MIC) was 12.5 µg/mL (≈ 30.4 µM).

As for `C/C(=C\c1cccc(O)c1)C(=O)N[C@@H]1[C@H](O)[C@@H](O)[C@H]2OCO[C@H]2[C@@H]1O`, the minimal inhibitory concentration (MIC) is > 200 µg/mL.

As to `C/C(=C\c1ccc(N2CCCC2)c(F)c1)C(=O)N[C@@H]1[C@H](O)[C@@H](O)[C@H]2OCO[C@H]2[C@@H]1O`, the MIC was found to be 6.25 µg/mL (≈ 14.8 µM).

Compound `C=C(C)COc1ccc(/C=C(\C)C(=O)N[C@@H]2[C@H](O)[C@@H](O)[C@H]3OCO[C@H]3[C@@H]2O)cc1O` returned a minimum inhibitory concentration (MIC) of 3.13 µg/mL (≈ 7.43 µM).

For the compound `C/C(=C\c1ccc(Cc2ccccc2)c(O)c1)C(=O)N[C@@H]1[C@H](O)[C@@H](O)[C@H]2OCO[C@H]2[C@@H]1O`, the minimum inhibitory concentration (MIC) is > 200 µg/mL.

Turning to `C/C(=C\c1ccc(OCC(N)=O)c(O)c1)C(=O)N[C@@H]1[C@H](O)[C@@H](O)[C@H]2OCO[C@H]2[C@@H]1O`, the minimal inhibitory concentration (MIC) was > 200 µg/mL.

Take `CCCCOc1ccc(/C=C(\C)C(=O)N[C@@H]2[C@H](O)[C@@H](O)[C@H]3OCO[C@H]3[C@@H]2O)cc1O`: it took 1.56 µg/mL (≈ 3.68 µM) to inhibit growth (MIC).

Compound `C/C(=C\c1ccc(OC2CCCC2)c(O)c1)C(=O)N[C@@H]1[C@H](O)[C@@H](O)[C@H]2OCO[C@H]2[C@@H]1O` displayed an MIC of 6.25 µg/mL (≈ 14.4 µM).

In turn, `CCOCOc1ccc(/C=C(\C)C(=O)N[C@@H]2[C@H](O)[C@@H](O)[C@H]3OCO[C@H]3[C@@H]2O)cc1O` displayed an MIC of 25 µg/mL (≈ 58.8 µM).

Consider `C/C(=C\c1ccc(OCc2ccccc2)c(O)c1)C(=O)N[C@@H]1[C@H](O)[C@@H](O)[C@H]2OCO[C@H]2[C@@H]1O`, for which the lowest concentration to inhibit growth (MIC) was 25 µg/mL (≈ 54.6 µM).

`C#CCOc1ccc(/C=C(\C)C(=O)N[C@@H]2[C@H](O)[C@@H](O)[C@H]3OCO[C@H]3[C@@H]2O)cc1O` displayed an MIC of 6.25 µg/mL (≈ 15.4 µM).

`CC(=O)C1O[C@@H](Oc2ccc(/C=C(\C)C(=O)N[C@@H]3[C@H](O)[C@@H](O)[C@H]4OCO[C@H]4[C@@H]3O)cc2O)[C@@H](O)C1Sc1ccccc1` (some centres undefined): the minimal inhibitory concentration (MIC) is > 100 µg/mL.

In turn, `CCNc1ccc(/C=C(\C)C(=O)N[C@@H]2[C@H](O)[C@@H](O)[C@H]3OCO[C@H]3[C@@H]2O)cc1O` displayed an MIC of 100 µg/mL (≈ 254 µM).

Compound `C/C(=C\c1ccc(OCC(O)CO)c(O)c1)C(=O)N[C@@H]1[C@H](O)[C@@H](O)[C@H]2OCO[C@H]2[C@@H]1O` (some centres undefined) had an MIC of 25 µg/mL (≈ 56.6 µM). This MIC is about 4-fold lower than that of the compound before.

Compound `C=CCOc1ccc(/C=C(\C)C(=O)N[C@@H]2[C@H](O)[C@@H](O)[C@H]3OCO[C@H]3[C@@H]2O)cc1F` registered an MIC of 1.56 µg/mL (≈ 3.81 µM). This MIC lies about 16-fold lower than the previous one.

The next experiment concerns Brachyspira hyodysenteriae. The experiment can be described thus: In vitro antibacterial activity against Serpulina (Treponema) hyodysenteriae was tested and is expressed as minimum inhibitory concentration: Value ranges from (12.5-25 ug/mL). It is filed as functional.
For the compound `CCCCc1ccc(/C=C(\C)C(=O)N[C@@H]2[C@H](O)[C@@H](O)[C@H]3OCO[C@H]3[C@@H]2O)cc1`, inhibition of growth (MIC) required 12.5 µg/mL (≈ 31.9 µM).

Turning to `C=CCNc1ccc(/C=C(\C)C(=O)N[C@@H]2[C@H](O)[C@@H](O)[C@H]3OCO[C@H]3[C@@H]2O)cc1O`, it took 12.5 µg/mL (≈ 30.8 µM) to inhibit growth (MIC).

Compound `CCCNc1ccc(/C=C(\C)C(=O)N[C@@H]2[C@H](O)[C@@H](O)[C@H]3OCO[C@H]3[C@@H]2O)cc1O` had a minimum inhibitory concentration (MIC) of 12.5 µg/mL (≈ 30.6 µM).

The test system of a further experiment is Brachyspira hyodysenteriae. The experiment can be described thus: In vitro antibacterial activity against Serpulina (Treponema) hyodysenteriae was tested and is expressed as minimum inhibitory concentration: Value ranges from (50-100 ug/mL). In kind it is functional.
`C/C(=C\c1ccc(OCCO)c(O)c1)C(=O)N[C@@H]1[C@H](O)[C@@H](O)[C@H]2OCO[C@H]2[C@@H]1O` registered an MIC of 50 µg/mL (≈ 122 µM).

The next experiment has as its system Brachyspira hyodysenteriae. Put plainly: In vitro antibacterial activity against Serpulina (Treponema) hyodysenteriae was tested and is expressed as minimum inhibitory concentration: Value ranges from ([…] ug/mL). It is filed as functional.
Compound `CC(=O)CCCOc1ccc(/C=C(\C)C(=O)N[C@@H]2[C@H](O)[C@@H](O)[C@H]3OCO[C@H]3[C@@H]2O)cc1O` came in with a minimum inhibitory concentration (MIC) of 12.5 µg/mL (≈ 27.7 µM).

A further experiment relates to Brachyspira hyodysenteriae. Put plainly: In vitro antibacterial activity against Serpulina (Treponema) hyodysenteriae was tested and is expressed as minimum inhibitory concentration: Value ranges from (3.13-6.25 ug/mL). In kind it is functional.
`C/C(=C\c1ccc(OCc2cccs2)c(O)c1)C(=O)N[C@@H]1[C@H](O)[C@@H](O)[C@H]2OCO[C@H]2[C@@H]1O` registered a minimal inhibitory concentration (MIC) of 3.13 µg/mL (≈ 6.75 µM).

`CCCCc1ccc(/C=C(\C)C(=O)N[C@@H]2[C@H](O)[C@@H](O)[C@H]3OCO[C@H]3[C@@H]2O)cc1O`: the MIC worked out at 3.13 µg/mL (≈ 7.68 µM).

The next experiment concerns Brachyspira hyodysenteriae. The experiment can be described thus: In vitro antibacterial activity against Serpulina (Treponema) hyodysenteriae was tested and is expressed as minimum inhibitory concentration: Value ranges from (6.25-12.5 ug/mL). It is filed as functional.
In the case of `COc1ccc(/C=C(\C)C(=O)N[C@@H]2[C@H](O)[C@@H](O)[C@H]3OCO[C@H]3[C@@H]2O)cc1F`, the MIC stood at 6.25 µg/mL (≈ 16.3 µM).

A further experiment concerns Brachyspira hyodysenteriae. Put plainly: In vitro antibacterial activity against Serpulina (Treponema) hyodysenteriae was tested and is expressed as minimum inhibitory concentration: Value ranges from (0.78-1.56 ug/mL). In kind it is functional.
Turning to `CC(=O)[C@H]1O[C@@H](Oc2ccc(/C=C(\C)C(=O)N[C@@H]3[C@H](O)[C@@H](O)[C@H]4OCO[C@H]4[C@@H]3O)cc2O)[C@@H](O)[C@@H]1O` [HYGROMYCIN A], the MIC is 0.78 µg/mL (≈ 1.52 µM).

Take `CSCCCOc1ccc(/C=C(\C)C(=O)N[C@@H]2[C@H](O)[C@@H](O)[C@H]3OCO[C@H]3[C@@H]2O)cc1O`: it took 0.78 µg/mL (≈ 1.71 µM) to inhibit growth (MIC).

Compound `CCCOc1ccc(/C=C(\C)C(=O)N[C@@H]2[C@H](O)[C@@H](O)[C@H]3OCO[C@H]3[C@@H]2O)cc1O` had an MIC of 0.78 µg/mL (≈ 1.91 µM).
